{"source": "paper PMC5597684", "about": "“Prediction and in vitro verification of potential CTL epitopes conserved among PRRSV-2 strains” (Immunogenetics, 2017)", "note": "Ends that are not written are not given here."}
{"target": "T1, SLA-1*04:01 (Sus scrofa, UniProt O19244)", "experiment": "pSLA complex stability, scintillation proximity assay (125I-β2m dissociation)", "format": "binding, swine", "details": "SPA, 125I-β2m dissociation at 37 °C over 24 h with 200 nM unlabeled β2m, refolded overnight 18 °C with ≈50 μM peptide, average of duplicates, t½ in decimal hours", "experimental": "(§1) Five SLA class I alleles were used: SLA-1*04:01, SLA-1*07:02, SLA-2*04:01, SLA-2*05:02 and SLA-3*04:01.\n(§2) Based on the bioinformatics described above, 53 peptides (purity >85%, GenScript) were acquired for in vitro verification.\n(§3) The stability of the pSLA complexes was determined in vitro using a scintillation proximity assay (SPA) employing the principle of ^125I-radiolabeled β2m dissociation as a measure of pSLA complex stability (Harndahl et al. [2011]; Parker et al. [1992b]). Briefly, denatured biotinylated recombinant SLA heavy chains were diluted in PBS/0.1% Lutrol F68 to 50 nM and refolded overnight at 18 °C with 2–10 nM ^125I-radiolabeled β2m and ≈50 μM of the peptide to be tested in streptavidin-coated scintillation 384-well FlashPlate PLUS microplates (SMP410A001PK, PerkinElmer). In case of a binding peptide, a scintillation signal was observed and the off-rate was subsequently determined by increasing the temperature to 37 °C and the addition of an excess of unlabeled β2m (final concentration 200 nM) while continuously monitoring the scintillation signal in a liquid microplate scintillation plate reader (Topcount NXT, PerkinElmer) for 24 h at 37 °C. The off-rate is equivalent to the peptide-specific dissociation rate and serves as a good measure for pSLA complex stability. The stability values reported are the averages of duplicates in half-life (t½) decimal hours.", "units": {"Stab. (h), measured stability (average dissociation half-life)": "h"}}
{"sequence": "RSTPAIVRWF [ID3]", "Stab. (h), measured stability (average dissociation half-life)": 0.1}
{"sequence": "KSGHPHGLLF [ID6]", "Stab. (h), measured stability (average dissociation half-life)": 0.1}
{"test_system": "SLA-1*07:02", "experiment": "pSLA complex stability, scintillation proximity assay (125I-β2m dissociation)", "format": "binding, swine", "details": "SPA, 125I-β2m dissociation at 37 °C over 24 h with 200 nM unlabeled β2m, refolded overnight 18 °C with ≈50 μM peptide, average of duplicates, t½ in decimal hours", "experimental": "as §1, §2, §3", "units": {"Stab. (h), measured stability (average dissociation half-life)": "h"}}
{"sequence": "TLSNYRRSY [ID15]", "Stab. (h), measured stability (average dissociation half-life)": 0.3}
{"target": "T2, SLA-2*04:01 (Sus scrofa, UniProt Q8MHU4)", "experiment": "pSLA complex stability, scintillation proximity assay (125I-β2m dissociation)", "format": "binding, swine", "details": "SPA, 125I-β2m dissociation at 37 °C over 24 h with 200 nM unlabeled β2m, refolded overnight 18 °C with ≈50 μM peptide, average of duplicates, t½ in decimal hours", "experimental": "as §1, §2, §3", "units": {"Stab. (h), measured stability (average dissociation half-life)": "h"}}
{"sequence": "SSAFFLRYF [ID45]", "Stab. (h), measured stability (average dissociation half-life)": 0.1}
{"target": "T1, SLA-1*04:01", "experiment": "pSLA binding affinity, modified ELISA", "set-up": "species or system swine", "details": "ELISA as above, only one successful affinity measurement, read-out: Aff. (nM), measured affinity (equilibrium dissociation constant)", "experimental": "as §1, §2\n(§4) Binding affinity of pSLA complexes was determined in vitro using a modified enzyme-linked immunosorbent assay (ELISA) (Sylvester-Hvid et al. [2002]; Pedersen et al. [2011]). Briefly, 1–2 nM denatured biotinylated recombinant SLA heavy chains were refolded with 15 nM human β2m (hβ2m) and eight fivefold incremental concentrations of the peptide to be tested spanning from 0 to 13 μM. Following obtained equilibrium after two nights of incubation at RT, the samples were transferred to a streptavidin coated 96-well capture plate (436014, Thermo Scientific) for 1½ h of incubation. Mouse-anti-hβ2m, BBM1, and horseradish peroxidase-conjugated goat-anti-mouse IgG (A9917, Sigma-Aldrich) were used as primary and secondary detection antibodies, respectively. Washing steps were performed with 0.05% Tween 20 in PBS. The color reaction of TMB Plus2 (4395A, Kem-En-Tec Diagnostics) was stopped with equivalent amounts of H2SO4 (0.5 M, cat 30144.294, VWR International), and the plates were read at 450–650 nm using a Multiskan EX ELISA reader (Thermo). OD values were converted to measures of affinity (equilibrium dissociation constant, K D) using the prefolded biotinylated […]/HLA-A*02:01 as standard (Kast et al. [1994]), and were again converted to percentile rank scores by the same SLA-specific standard curves that are integrated in NetMHCpan. A minimum of two reliable measurements were aspired for each pSLA combination, and in most cases this was obtained. The results are presented as the range between the minimum and maximum measurements converted to rank scores.", "units": {"Kd": "nM"}}
{"sequence": "FTWYQLASY [ID13]", "Kd": 92}
{"sequence": "RTILGTNNF [ID1]", "Kd": 1030}
{"sequence": "YSFPGPPFF [ID4]", "Kd": 37}
{"sequence": "MVNTTRVTY [ID29]", "Kd": 206}
{"sequence": "ALATAPDGTY [ID46]", "Kd": 607}
{"sequence": "LSASSQTEY [ID38]", "Kd": 91}
{"target": "T1, SLA-1*04:01", "experiment": "pSLA binding affinity, modified ELISA", "set-up": "species or system swine", "details": "ELISA, 1–2 nM heavy chain, 15 nM hβ2m, peptide 0 to 13 μM, two nights at RT, average of successful measurements, read-out: Aff. (nM), measured affinity (average equilibrium dissociation constant)", "experimental": "as §1, §2, §4", "units": {"Kd": "nM"}}
{"sequence": "KVAHNLGFY [ID21]", "Kd": 4}
{"sequence": "RTAPNEIAF [ID24]", "Kd": 4}
{"sequence": "NISAVFQTYY [ID23]", "Kd": 413}
{"sequence": "ASDWFAPRY [ID25]", "Kd": 2}
{"sequence": "LSDSGRISY [ID19]", "Kd": 10}
{"sequence": "RTAIGTPVY [ID17]", "Kd": 57}
{"sequence": "TTMPSGFELY [ID43]", "Kd": 576}
{"sequence": "KVAHNLGFYF [ID10]", "Kd": 122}
{"sequence": "QVYERGCRWY [ID7]", "Kd": 682}
{"target": "T2, SLA-2*04:01", "experiment": "pSLA binding affinity, modified ELISA", "set-up": "species or system swine", "details": "ELISA as above, only one successful affinity measurement, read-out: Aff. (nM), measured affinity (equilibrium dissociation constant)", "experimental": "as §1, §2, §4", "units": {"Kd": "nM"}}
{"sequence": "SSEGHLTSVY [ID34]", "Kd": 1690}
{"sequence": "ATQEWLSRMW [ID31]", "Kd": 50000}
{"sequence": "LSDSGRISY [ID19]", "Kd": 4180}
{"sequence": "KIFRFGSHKW [ID22]", "Kd": 9}
{"sequence": "RTAIGTPVY [ID17]", "Kd": 385}
{"sequence": "TTMPSGFELY [ID43]", "Kd": 1840}
{"sequence": "QVYERGCRWY [ID7]", "Kd": 209}
{"target": "T2, SLA-2*04:01", "experiment": "pSLA binding affinity, modified ELISA", "set-up": "species or system swine", "details": "ELISA, 1–2 nM heavy chain, 15 nM hβ2m, peptide 0 to 13 μM, two nights at RT, average of successful measurements, read-out: Aff. (nM), measured affinity (average equilibrium dissociation constant)", "experimental": "as §1, §2, §4", "units": {"Kd": "nM"}}
{"sequence": "FVLSWLTPW [ID28]", "Kd": 3}
{"sequence": "LTAALNRNRW [ID36]", "Kd": 40}
{"sequence": "ASYVWVPLTW [ID20]", "Kd": 17100}
{"sequence": "FTWYQLASY [ID13]", "Kd": 2}
{"sequence": "NISAVFQTYY [ID23]", "Kd": 862}
{"sequence": "GGNWFHLEW [ID8]", "Kd": 16600}
{"sequence": "YAQHMVLSY [ID2]", "Kd": 60}
{"sequence": "LSFSYTAQF [ID12]", "Kd": 73}
{"sequence": "WGVYSAIETW [ID48]", "Kd": 21400}
{"sequence": "MSWRYSCTRY [ID44]", "Kd": 15}
